One molecule from US9072751B2, “Na/K-ATPase ligand” (priority 2006, dated 2015) can be followed below.

The test system of one assay is Sprague-Dawley rats. Nature of the assay: Blood pressure, left ventricular hemodynamics (Millar catheter) and heart size 4 weeks after MBG infusion. Type of assay: in vivo. As for the experimental part:
Male, Sprague-Dawley rats were used for all of the studies. All of the animal experimentation described in the article was conducted in accordance with the National Institutes of Health Guide for the Care and use of Laboratory Animals using protocols approved by the Medical University of Ohio Institutional Animal Use and Care Committee.
(§1) Briefly, Sprague-Dawley rats weighing.apprxeq.250 g at the time of surgery were subjected to either sham surgery with no MBG infusion (Sham), sham surgery with placement of a minipump infusing MBG at 10 μg/kg per day (MBG), PNx, and PNx after immunization against MBG (PNx-IM). MBG of extremely high purity (>99%) was isolated from the venom of Bufa marinas by Kennedy et al. In addition to these maneuvers, a group of PNx animals was subjected to adrenalectomy as well (PNx-ADx).
(§2) (determined after extraction on a C-18 column using DELPHIA as described previously), aldosterone (determined with ELISA kit 10004377, Cayman Chemical) and cardiac immunohistochemistry (vida infra) were assessed 4 weeks after surgery.
In the current in vivo studies we observed that MBG levels were increased in PNx- and MBG-treated rats compared with sham-operated controls. […] Using the Millar pressure/volume sensor catheter rather than echocardiography in our previous report, we observed that PNx induced decreases in end systolic volume and end diastolic volume, as well as increased ejection fraction compared with sham-operated controls. The end systolic volume and end diastolic volume were greater, and the ejection factor values were lower in PNX-IM as compared with PNx. […] Using pressure volume loops generated during vena cava occlusions, we noted that the end diastolic pressure volume relationship (an inverse measurement of passive compliance) was increased in PNx- and MBG-treated animals compared with controls, whereas […] ha a lower end diastolic pressure volume relationship than PNx.

Assay [1] concerns left ventricular cardiac tissue. Nature of the assay: Cardiac tissue fibrosis, immunohistochemistry and Western blot after MBG infusion. Type of assay: in vivo, Sprague-Dawley rats. As for the experimental part:
as §1, §2
Western blot analysis was performed on protein isolated from tissue homogenates, cell culture whole cell lysates, or nuclear extracts as described previously.
Immunization against MBG attenuated these increases. Western blot analysis confirmed that PNx and MBG had 2 to 2.5 times the expression of procollagin-1 and a smooth muscle actin seen with sham-operated controls, whereas PNx-IM expression of both procollagen-1 and a smooth muscle actin was substantially less than that seen with PNx.
Other data includes a representative pressure-volume loops obtained during vena cava occlusion from rats subjected to sham surgery (Sham), PNx, MBG infusion (MBG), and PNx after immunization against an MBG-albumin conjugate (PNx-IM). Regression lines fit to the end systolic pressure volume relationship (ESPVR, dotted line) and the end diastolic pressure volume relationship (EDPVR, solid line). B, ventricular cross-sectional areas determined from trichrome stains of tissue obtained from Sham, PNx, MBG, and PNx-IM animals (each group: N=8 animals, .apprxeq.100 measurements averaged to determine mean for each animal; data shown as the group mean.+−.SEM using N−8). Representative immunohistochemistry images of cardiac tissues stained for (c) collagen-1 and (d) a smooth muscle actin (aSMA). Counterstain for both c and d was hematoxlyn. Western blot and corresponding densitometric analysis for (e) procollagen-1 and (f) aSMA. Note that both collagen-1 and aSMA staining are much more intense in the PNx and MBG groups compared with Sham, whereas the PNx-IM staining is similar to Sham. Similarly, procollagen and aSMA expression are substantially higher in PNx and MBG animals compared with Sham, whereas immunization against MBG (PNx-IM) attenuated the changes seen with PNx. Data for e and f are derived from N=6 experiments in each group and shown as mean.+−.SEM. Sham refers to hearts isolated from control animals, PNx refers to PNx, MBG refers to MBG supplemented, and PNx-IM refers to animals immunized against MGB before PNx surgery. *P<0.05, **P<0.01 vs Sham, #P<0.01 vs PNx.
A general note: Immunoblotting shows a protein as a band on a membrane.

The target of the next assay is T1, Na/K-ATPase (Rattus norvegicus, UniProt P06685).
T1 construct: In vitro studies were then pursued with cultured isolated cardiac fibroblasts; endogenous in cells; host or cells: primary isolated cardiac fibroblasts in culture
Nature of the assay: Ouabain sensitive 86Rb uptake in cardiac fibroblasts. It is filed as cell-based. As for the experimental part:
To further examine the molecular basis of this cardiac fibrosis, isolated cardiac fibroblasts were subjected to increase doses of MBG (10^−10, 10^−9, and 10^−8 M). […] Using collagenase digestion, we observed that the vast majority of the proline incorporation was into collagen. Using standardized RT-PCR, we observed a doubling of mRNA for collagen-1 at 24 hours in response to 10 nM of MBG.
Representative Western blot for procollagen and quantitative densitometric data obtained in response to different doses of (a) MBG (all N=10), (b) MBG 10 nM contrasted with different doses of ouabain (0.1 to 100 nM) and digoxin (10 nM; all N=8). c, ouabain sensitive Rb uptake as a function of MBG and ouabain concentration (N=4 at each concentration for both MBG and ouabain; data expressed as fraction of control). d, relative proline incorporation in the supernatant and matrix, both will and without collagenase digestion (total). Each group (controls and different doses of MBG) contains N=7 replicants. The difference between the total and after collagenase digestion is reported as collagen. […] Bars on quantitative graphs represent the mean.+−.SEM. *P<0.05 and **P<0.01 vs control.

Assay [2] relates to TGF-β, Smad 2/3, Smad 4, pSmad 2/3. Nature of the assay: TGF-β, Smad 2/3, Smad 4, pSmad 2/3 expression in fibroblasts (Western blot). Type of assay: cell-based, rat. As to conditions: 24 hours, 1 and 10 nM. The source says:
To further examine the molecular mechanisms by which cardiotonic steroids induce collagen production in fibroblasts, we examined the effects of MBG on TGF-β expression, as well as the expression of Smad 2/3, Smad 4, and pSmad 2/3. […] Next, we examined whether TGF-β induced collagen production and whether there was synergism between TGF-β and MBG. […] However, it is important to point out that we never completely serum starve the primary cultures, and because serum is always present, some TGF-β is always present.
The effect of 24 hours of MBG (1 and 10 nM) on TGF-β, Smad 2/3, Smad 4, and pSmad 2/3 expression determined by Western blot. b and c, effects of 24 hours of MBG (10 nM), TGFβ(5 ng/mL), and the TGF-β receptor antagonist SB431542 ([…] on procollagen-1 expression (Western blot) and radiolabeled proline incorporation, respectively also were carried out. SB431542 was added 2 hours before exposure to either TGFβ or MBG (total of 26-hour exposure). Each bar represents the mean.+−.SEM of 6 to 8 determinations. *P<0.05, **P<0.01 vs. control.

Setting [3] is: MBG infusion, 4 weeks, mean ± SEM.

Each structure is given as a SMILES string.

Turning to `C[C@]12CC[C@H](O)C[C@@]1(O)CC[C@@H]1[C@@H]2CC[C@]2(C)[C@@H](c3ccc(=O)oc3)C[C@H]3O[C@]132` [MBG, marinobufagenin], in the assay with Sprague-Dawley rats (setting [3]), the Ejection fraction worked out at 68 ± 2 %, the End diastolic volume amounted to 162 ± 14 µL, the End systolic volume came out at 60 ± 6 µL and the “Heart rate (Tall cuff measurements)” value was found to be 367 ± 9 bpm. Besides, in the assay on Sprague-Dawley rats (setting [3]), the “Heart weight/body weight ratio” value came out at 2.8 ± 0.1 g/kg and the “Systolic blood pressure (Tall cuff measurements)” value stood at 136 ± 4 mm Hg. In addition, in the assay with Sprague-Dawley rats (end diastolic pressure volume relationship, MBG infusion, 4 weeks, mean ± SEM), the EDPVRX1000 came out at 41 ± 6 mm Hg/μL. In the assay on Sprague-Dawley rats (time constant of isovolumic relaxation, MBG infusion, 4 weeks, mean ± SEM), the τ is 11.3 ± 0.3 ms. Besides, the “Ventricular myocyte cross-sectional area” value in the assay on Sprague-Dawley rats (trichrome images, MBG infusion vs sham) is on record as “marked increases”. Further, the Cardiac fibrosis entry in assay [1] is on record as “caused cardiac fibrosis”. In addition, in assay [1] (heart tissue), the “Collagen-1 and a smooth muscle actin staining (immunohistochemistry)” value was “marked increases”; the “Expression of a smooth muscle actin relative to sham-operated controls (Western blot)” value is recorded as 2 to 2.5 times; the “Expression of procollagin-1 relative to sham-operated controls (Western blot)” value is on record as 2 to 2.5 times. The “Threshold for inducing collagen expression relative to doses with detectable effects on 86Rb uptake” value on Na/K-ATPase is reported as “log units below”. For the same molecule, the “TGF-β, Smad 2/3, Smad 4, pSmad 2/3 expression in vitro” value in assay [2] is “did not observe significant changes”.
